Reference: publication PMC10581520 (Veterinární Medicína, 2023)
“And” between values parts separate entries of the source, which are not always exact repeats. Identical values can stand only once. Like-named read-outs stand apart in the source and are kept apart here. Blank lines part the entries; values can stand above or below the compound they belong to.

Legend:
[1] = Kinetic study: N-demethylation of CIT and DCIT in Beagle dog liver microsomes; type: in vitro ADME; conditions: Beagle, dog, liver microsomes, pH 7.4
[2] = test system: Beagle dog liver microsomes; assay: as above; type: in vitro ADME; conditions: for IC of N-demethylation, Beagle dogs versus humans: liver microsomes, dog data of this study compared with literature human data; for Km1 / Km2 / Vmax1 / Vmax2: dog liver microsomes
[3] = in dogs; ref Matsui et al. 1995; cited from earlier work
Beagle dogs = conditions: cited from earlier work
patients = conditions: cited from earlier work; for arrhythmia risk category: associated risk of arrhythmia and possible TdP risk, ref Fanoe et al. 2014; for effect on QTc-interval and risk for torsades de pointes (TdP): patients; for risk group classification: ref www.crediblemeds.org
Human liver microsomes = conditions: cited from earlier work
[4] = test system: serotonin [5-hydroxytryptamine (5-HT)] reuptake; conditions: compared with S-CIT; ref Hyttel et al. 1992; Hyttel 1993; cited from earlier work
[5] = test system: dog liver microsomes (CYP2D15, CYP3A12, CYP2C21/41); type: in vitro ADME, Beagle dog; conditions: for effect on the production of the DCIT and DDCIT enantiomers: dog liver microsomes, data not shown
[6] = test system: N-demethylation of DCIT; CYP3A12 (ketoconazole), CYP2C21/41 (omeprazole); type: in vitro ADME, Beagle dog; conditions: Beagle, dog, liver microsomes, pH 7.4, probe DCIT 10 and 100 μM, formation of DDCIT
[7] = test system: N-demethylation of DCIT; CYP2D15 (quinidine); type: in vitro ADME, Beagle dog; conditions: Beagle, dog, liver microsomes
[8] = substrate CIT, metabolite R-DCIT
[9] = substrate CIT, metabolite S-DCIT
[10] = substrate DCIT, metabolite DDCIT
[11] = substrate DCIT, metabolite R-DDCIT
[12] = substrate DCIT, metabolite S-DDCIT
[13] = 100 μM quinidine, 10 μM DCIT, n = 3

inhibition at 1 h [6]: < 15%
Compound: CC(=O)N1CCN(c2ccc(OCC3COC(Cn4ccnc4)(c4ccc(Cl)cc4Cl)O3)cc2)CC1 (stereo not shown) [ketoconazole]

inhibition at 1 h [6]: < 15%
Compound: COc1ccc2[nH]c([S+]([O-])Cc3ncc(C)c(OC)c3C)nc2c1 (stereo not shown) [omeprazole]

inhibition at 1 h, 100 μM ([7]; pH 7.4, probe DCIT 10 μM, formation of R-DDCIT): 80.5%
inhibition at 1 h, 100 μM ([7]; pH 7.4, probe DCIT 10 μM, formation of S-DDCIT): 86.4%
inhibition at 1 h, 100 μM ([7]; pH 7.4, probe DCIT 100 μM, formation of R-DDCIT): 61.6%
inhibition at 1 h, 100 μM ([7]; pH 7.4, probe DCIT 100 μM, formation of S-DDCIT): 57.6%
difference in the production of S-DCIT from CIT in comparison to absence of the inhibitor ([5]; 100 μM quinidine, 10 μM CIT, n = 5): 36.9 ± 8.53 pmol/(min × mg protein)
difference of the production of R-DDCIT in comparison to absence of the inhibitor [5, 13]: 63.3 ± 2.72 pmol/(min × mg protein)
difference of the production of S-DDCIT in comparison to absence of the inhibitor [5, 13]: 172 ± 6.6 pmol/(min × mg protein)
Compound: C=C[C@H]1C[N@@]2CC[C@H]1C[C@@H]2[C@@H](O)c1ccnc2ccc(OC)cc12 [quinidine]

effect on the production of the DCIT and DDCIT enantiomers [5]: did not notably modify
Compound: Nc1ccc(S(=O)(=O)Nc2ccnn2-c2ccccc2)cc1 [sulphaphenazole]

Further lines, the compound ahead of its results:

Compound: CN(C)CCCC1(c2ccc(F)cc2)OCc2cc(C#N)ccc21 (stereo not shown) [CIT, citalopram]
Km at 1 h [1]: ≤ 1.4 µM
IC of N-demethylation, Beagle dogs versus humans [2]: about 10 times higher
Km1 ([2]; substrate CIT, metabolite DCIT): 1.1 µM and 1.1 ± 0.3 µM
Km2 ([2]; substrate CIT, metabolite DCIT): 1 006 μM
Vmax1 ([2]; substrate CIT, metabolite DCIT): 47 ± 3 pmol/(min × mg of protein)
Vmax2 ([2]; substrate CIT, metabolite DCIT): 591 ± 28 pmol/(min × mg of protein)
Km1 [2, 8]: 1.4 ± 0.5 µM
Vmax1 [2, 8]: 21 ± 2 pmol/(min × mg of protein)
Vmax2 [2, 8]: 338 ± 24 pmol/(min × mg of protein)
Km1 [2, 9]: 1.0 ± 0.2 µM
Km2 [2, 9]: 848 ± 69 µM
Vmax1 [2, 9]: 26 ± 1 pmol/(min × mg of protein)
Vmax2 [2, 9]: 264 ± 10 pmol/(min × mg of protein)
mean elimination half-life [3]: 9.6 h
convulsive effect in dogs (Beagle dogs; dogs, ref Boeck and Overo 1982): severe convulsive attacks
electrocardiographic changes in dogs (Beagle dogs; dogs, ref Boeck and Overo 1982): no electrocardiographic changes were observed
arrhythmia risk category (patients): Class B
effect on QTc-interval and risk for torsades de pointes (TdP) (patients): increase the QTc-interval
risk group classification (patients): risk group 1
Km (Human liver microsomes; read-out: Km values, stereoselective CIT N-demethylation, human liver microsomes, ref Rochat et al. 1997, Olesen and Linnet 1999, von Moltke et al. 2001): ≥ 17.3 µM

Compound: CNCCCC1(c2ccc(F)cc2)OCc2cc(C#N)ccc21 (stereo not shown) [DCIT, desmethylcitalopram]
Km at 1 h [1]: ≤ 1.4 µM
IC of N-demethylation, Beagle dogs versus humans [2]: about 30 times higher
Km1 [2, 10]: 0.6 ± 0.2 µM
Km2 [2, 10]: 137 ± 18 µM
Vmax1 [2, 10]: 44 ± 4 pmol/(min × mg of protein)
Vmax2 [2, 10]: 155 ± 5 pmol/(min × mg of protein)
Km1 [2, 11]: 0.3 ± 0.2 µM
Km2 [2, 11]: 212 µM and 212 ± 24 µM
Vmax1 [2, 11]: 11 ± 2 pmol/(min × mg of protein)
Vmax2 [2, 11]: 105 ± 3 pmol/(min × mg of protein)
Km1 [2, 12]: 0.6 ± 0.1 µM
Km2 [2, 12]: 66 µM and 66 ± 11 µM
Vmax1 [2, 12]: 31 ± 3 pmol/(min × mg of protein)
Vmax2 [2, 12]: 55 ± 2 pmol/(min × mg of protein)
mean elimination half-life [3]: 8.1 h
potency as serotonin reuptake inhibitors [4]: lower than that of S-CIT
IC values, N-demethylation of DCIT enantiomers (Human liver microsomes; humans, ref von Moltke et al. 2001): ≤ 1.3 pmol/(min × mg protein)
Km (Human liver microsomes; read-out: Km values, N-demethylation of DCIT enantiomers, humans, ref von Moltke et al. 2001): ≥ 72 µM

Compound: N#Cc1ccc2c(c1)COC2(CCCN)c1ccc(F)cc1 (stereo not shown) [DDCIT, didesmethylcitalopram]
mean elimination half-life [3]: 27.8 h
plasma level to which DDCIT toxicity is related (Beagle dogs; dog, ref Shanks et al. 2009): ≥ 1 000 nM and ≥ 300 ng/ml
potency as serotonin reuptake inhibitors [4]: lower than that of S-CIT

Compound: CN(C)CCC[C@@]1(c2ccc(F)cc2)OCc2cc(C#N)ccc21 [S-CIT, S-citalopram]
arrhythmia risk category (patients): Class B
effect on QTc-interval and risk for torsades de pointes (TdP) (patients): increase the QTc-interval
risk group classification (patients): risk group 1

Compound: Cc1nc2c([nH]1)c(=O)n(C)c(=O)n2Cc1ccco1 [furafylline]
effect on the production of the DCIT and DDCIT enantiomers [5]: did not notably modify
